# Measured values from US12447135B2 (University of South Florida, priority 2021, dated 2025).
# What was measured:
# SK-N-SH cells [1] = experiment: Aβ accumulation in SK-N-SH cells (western blot); assay type: cell-based, human; conditions: vs Aβ-only treated controls, FFAR2 dependent
# Protocol: To determine the FFAR2 signal activating property of selected compounds, SK-N-SH cells were treated with 10 μM of shortlisted compounds for 30 min at 37° C. and harvested for total protein extraction. Cells were harvested after 30 min of incubation because ERK1/2 phosphorylation upon FFAR2 activation is a quick event (Jiao et al., 2002; Bhattacharjee et al., 2010). Total protein from the cells was extracted using a lysis buffer [consisting of 10 mmol/L Tris (pH 7.6), 150 mmol/L NaCl, 10 mmol/L Sodium orthovanadate, 10 mmol/L Sodium Pyrophosphate, 100 mmol/L Sodium fluoride, 1 mmol/L EDTA, 1 mmol/L EGTA, 1% Triton X-100, 0.5% NP-40 and a cocktail of protease inhibitors (Roche); Yadav et al., 2011, 2017; Ahmadi et al., 2019, 2020a]. After sonication, cell extracts were centrifuged at 8,000×g for 10 min at 4° C., and the supernatant was separated in a fresh tube. The total protein concentration of the supernatant was measured using a BCA protein assay kit. […] Band densities were also quantified using NIH ImageJ software. β-actin was used as an internal control.
# SK-N-SH cells [2] = experiment: Aβ-induced neurotoxicity, MTT viability assay; assay type: cell-based, human
# Protocol: To determine the impact of FFAR2 inhibition on Aβ-induced neuronal cell toxicity, the MTT viability assay was performed (Ronicke et al., 2008). SK-N-SH cells (1×10^3 cells per well) were plated in a 96-well plate containing DMEM medium supplemented with 10% FBS and 1% antibiotics and grown at 37° C. for 24 h. Then, media was removed, and cells were washed with PBS before being replenished with DMEM media containing 1% FBS and 10 μM FFAR2 inhibitor (CATPB, Tocris) and incubated at 37° C. for 2 h. Then, cells were treated with Aβ 25-32 peptide (25 μM, Sigma) and incubated for 4 h. Afterward, the media was replaced with 100 μl of fresh media, and 10 μl of MTT reagent (5 mg/ml in phosphate buffer [pH 7.2]) was added and mixed in each well before an additional 4 h incubation. Then, DMSO (50 μl) was added in each well and mixed thoroughly to dissolve formazan crystals. The absorbance was measured at 570 nm.
# FFAR2 signaling [3] = experiment: cAMP-Glo assay, forskolin-induced cAMP in SK-N-SH cells; assay type: cell-based, human; conditions: 10 μM compound, 10 μM forskolin
# Protocol: FFAR2 is a Gi/o signaling receptor, which reduces cytosolic cAMP (Falomir-Lockhart et al., 2019). To determine the FFAR2 signaling activating potential of selected compounds, the cAMP-Glo™ Assay was used to measure intracellular cAMP. SK-N-SH cells (1×10^3 cells per well) were plated in a white 96-well plate for 24 h and then treated with 10 μM compounds and 10 μM forskolin (a positive control) dissolved in induction buffer. The cAMP levels were detected using a Luminescence Microplate Reader.
# FFAR2 signaling [4] = experiment: Intracellular calcium assay in SK-N-SH cells; assay type: cell-based, human; conditions: 10 μM
# Protocol: FFAR2 signaling activation increases intracellular calcium (Falomir-Lockhart et al., 2019). To further determine the activation potential of selected compounds for this signaling, we plated the SK-N-SH cells (1.25×10^3 cells per well) into a dark 96-well plate for 24 h. […] Also, 0.01 M EDTA (Sigma) and […] carbachol were used as negative and additional positive controls, respectively. After 15 min, the cells were treated with […] Direct™ calcium reagent along with […] probenecid and further incubated at 37° C. for 30 min. The fluorescence was measured with excitation at 494 nm and emission at 516 nm using a microplate reader.
# proteasome = experiment: Proteasome activity assay in C. elegans; assay type: in vivo; conditions: C. elegans (CL2006)
# Protocol: The CL2006 strain, SK-N-SH cells, and brain tissues were sonicated in a lysis buffer (150 mM NaCl, 50 mM HEPES, 2 mM DTT, 20 mM NaF, 5 mM EDTA, 2.5 mM sodium pyrophosphate, 1 mM sodium orthovanadate, and 1 mM α-glycerophosphoric acid) and then centrifuged at 15,000 g at 4° C. for 15 min. Total protein was assayed using BCA kit and 20 μg protein was mixed with 140 μM suc-leu-leu-val-tyr-7-amino-4-methylcou-marin (AMC) in a proteasome activity assay buffer (150 mM NaCl, 50 mM HEPES [pH 7.4], 5 mM ATP, and 5 mM EDTA), and then the fluorescence (excitation 380 nm and emission 460 nm) was measured every 10 min over 3 h using a microplate reader. The assay was performed with and without the proteasome inhibitor MG132 (10 μM).
# SK-N-SH cells [5] = experiment: Lysosome activity in SK-N-SH cells; assay type: cell-based, human; conditions: 10 μM, vs controls
# Protocol: Bafilomycin was used as an inhibitor of cellular autophagy/lysosomal activity. The lysosomal activity was assayed using the Enz@ lysozyme assay kit (E-22013, Molecular Probes) and the fluorescence was measured in a fluorescence microplate reader using excitation and emission wavelengths of 494 nm and 518 nm, respectively (Biotek Instruments, VT, USA).
# SK-N-SH cells [6] = experiment: Senescence β-galactosidase staining; assay type: cell-based, human; conditions: Aβ-treated cells, Fenchol
# Protocol: After overnight incubation, Aβ 25-32 (25 μM) peptide was added to the cells for 4 h. The Senescence β-Galactosidase Staining Kit (Cell Signaling, USA) was used for the detection of the expression of β-galactosidase activity, following the manufacturer's instructions.
structure (smiles),measurement,setting,value
CC12CCC(C1)C(C)(C)C2O (stereo not drawn) [Fenchol],Aβ-accumulation,SK-N-SH cells [1],significantly reduced
same,protection in cell viability with FFAR2 inhibitor,"SK-N-SH cells [2]; Fenchol together with FFAR2 inhibitor, Aβ",no significant protection
same,Aβ-induced neuronal cell death,SK-N-SH cells [2]; vs DMSO controls,significantly reduced
same,"cAMP upon Forskolin-stimulation, ascending order",FFAR2 signaling [3],Fenchol<Carvamenthenol<α-Terpineol<Carene<Pentanone<Octopamine<Camphene
same,decrease in cAMP upon Forskolin-stimulation,FFAR2 signaling [3],highest decrease
same,increase in intracellular calcium levels,FFAR2 signaling [4],highest increase
same,proteasomal activity,proteasome,significantly increased
same,lysosomal activity,SK-N-SH cells [5],significantly increased
same,number of senescent neuronal cells,SK-N-SH cells [6],significantly reduced
